How the values were obtained:
Assay in all cases: Test F preemergence test
Conditions in all cases: scale 0 to 100
common chickweed = assay type: in vivo, Stellaria media
Description: (§1) Seeds of plant species selected from bermudagrass (Cynodon dactylon), Surinam grass (Brachiaria decumbens), large crabgrass (Digitaria sanguinalis), green foxtail (Setaria viridis), goosegrass (Eleusine indica), johnsongrass (Sorghum halepense), kochia (Kochia scoparia), pitted morningglory (Ipomoea lacunosa), purple nutsedge (Cyperus rotundus), common ragweed (Ambrosia elation), mustard (Brassica nigra), guineagrass (Panicum maximum), […] (Paspalum dilatatum), barnyardgrass (Echinochloa crus-galli), southern sandbur (Cenchrus echinatus), common sowthistle (Sonchus oleraceous), prickly […] spinosa), Italian ryegrass (Lolium multiflorum), common purslane (Portulaca oleracea), broadleaf signalgrass (Brachiaria platyphylla), common groundsel (Senecio vulgaris), common chickweed (Stellaria media), Virginia dayflower (Commelina virginica), annual bluegrass (Poa annua), naked crabgrass (Digitaria nuda), […] cochinchinensis), quackgrass (Elytrigia repens), Canada horseweed (Conyza canadensis), field bindweed (Convolvulus arvensis), […] (Bidens bipinnata), common mallow (Malva sylvestris), Russian thistle (Salsola kali), and sugarcane (Saccharum officinarum) were planted and treated preemergence with test chemicals formulated in a non-phytotoxic solvent mixture which included a surfactant. At a different time, sugarcane was treated with postemergence applications of some of the test chemicals formulated in the same manner. Plants were approximately 3- to 4-leaf stage for the postemergence treatments. Treated plants and controls were maintained in a greenhouse for 14 to 21 days, after which time all species were compared to controls and visually evaluated. […] A dash (-) response means no test result.

guineagrass = assay type: in vivo, Panicum maximum
Description: as §1

spanishneedles = assay type: in vivo, Bidens bipinnata
Description: as §1

Canada horseweed = assay type: in vivo, Conyza canadensis
Description: as §1

common sowthistle = assay type: in vivo, Sonchus oleraceous
Description: as §1

| SMILES | Chickweed plant response rating (common chickweed; 125 g ai/ha, preemergence) | Plant response rating, Chickweed (common chickweed; Preemergence, 31 g ai/ha) | Plant response rating, Guineagrass (guineagrass; 16 g ai/ha, preemergence) | Guineagrass plant response rating (guineagrass; 125 g ai/ha, preemergence) | Plant response rating, Guineagrass (guineagrass; Preemergence, 31 g ai/ha) | Plant response rating, Spanishneedles (spanishneedles; 16 g ai/ha, preemergence) | Spanishneedles plant response rating (spanishneedles; 125 g ai/ha, preemergence) | Plant response rating, Spanishneedles (spanishneedles; Preemergence, 62 g ai/ha) | Plant response rating, Spanishneedles (spanishneedles; Preemergence, 31 g ai/ha) | Horseweed plant response rating (Canada horseweed; 62 g ai/ha, Preemergence) | Horseweed plant response rating (Canada horseweed; 125 g ai/ha, preemergence) | Plant response rating, Horseweed (Canada horseweed; Preemergence, 31 g ai/ha) | Chickweed plant response rating (common chickweed; 62 g ai/ha, Preemergence) | Guineagrass plant response rating (guineagrass; 62 g ai/ha, Preemergence) | Plant response rating, Guineagrass (guineagrass; Preemergence, 16 g ai/ha) | Sowthistle plant response rating (common sowthistle; 125 g ai/ha, preemergence) | Plant response rating, Sowthistle (common sowthistle; Preemergence, 31 g ai/ha) | Plant response rating, Horseweed (Canada horseweed; 16 g ai/ha, preemergence) | Plant response rating, Sowthistle (common sowthistle; Preemergence, 62 g ai/ha) | further results |
| --- | --- | --- | --- | --- | --- | --- | --- | --- | --- | --- | --- | --- | --- | --- | --- | --- | --- | --- | --- | --- |
| CC(Oc1c(C[S+]([O-])c2ccc(Cl)c[n+]2[O-])c(C(F)(F)F)nn1C)C(F)(F)F (centres unmarked) [Compound 87] | 100 | 100 | 90 | 100 | 100 | 0 | 100 | 100 | 0 | – | – | – | – | – | – | – | – | – | – | Plant response rating, Chickweed (common chickweed; 16 g ai/ha, preemergence): 0; Plant response rating, Chickweed (common chickweed; Preemergence, 62 g ai/ha): 100; Plant response rating, Guineagrass (guineagrass; Preemergence, 62 g ai/ha): 100 |
| Cc1cc[n+]([O-])c(S(=O)(=O)Cc2c(C(F)(F)F)nn(C)c2Cl)c1 [Compound 19] | 75 | 0 | – | 100 | 80 | – | – | – | – | 0 | 100 | 0 | 0 | 100 | 50 | 95 | 0 | – | – | Plant response rating, Horseweed (Canada horseweed; Preemergence, 16 g ai/ha): 0; Plant response rating, Chickweed (common chickweed; Preemergence, 16 g ai/ha): 0; Sowthistle plant response rating (common sowthistle; 62 g ai/ha, Preemergence): 80 |
| Cn1nc(OC(F)F)c(CS(=O)(=O)c2cccc[n+]2[O-])c1C(F)(F)F [Compound 80] | – | – | 75 | 100 | 98 | 0 | 0 | 0 | 0 | 100 | 100 | 0 | – | 98 | – | – | – | 0 | – | – |
| Cn1nc(C(F)(F)F)c(C[S+]([O-])c2cccc[n+]2[O-])c1OCC(F)(F)F (racemic) [Compound 28] | – | – | – | 100 | 100 | – | 100 | – | 80 | – | – | – | – | 100 | 75 | – | – | – | – | Spanishneedles plant response rating (spanishneedles; 62 g ai/ha, Preemergence): 100 |
| Cc1cc[n+]([O-])c(S(=O)(=O)Cc2c(C(F)(F)F)nn(C)c2OCC(F)(F)F)c1 [Compound 31] | – | – | 80 | 100 | 100 | 0 | – | 100 | 100 | – | – | – | – | 100 | – | – | – | – | – | – |
| CCn1nc(C(F)(F)F)c(C[S+]([O-])c2cc(C)cc[n+]2[O-])c1OCC(F)(F)F (racemic) [Compound 66] | 100 | 100 | 20 | 100 | 80 | 15 | 100 | 80 | 65 | 90 | 100 | 50 | 100 | 100 | – | 100 | 0 | 50 | 100 | Plant response rating, Chickweed (common chickweed; 16 g ai/ha, preemergence): 100; Plant response rating, Sowthistle (common sowthistle; 16 g ai/ha, preemergence): 0 |
| Cn1nc(C(F)(F)F)c(CS(=O)(=O)c2cccc[n+]2[O-])c1OCC(F)(F)F [Compound 29] | – | – | – | 100 | 100 | – | 25 | – | 0 | – | – | – | – | 100 | 90 | – | – | – | – | Spanishneedles plant response rating (spanishneedles; 62 g ai/ha, Preemergence): 0 |
| Cn1nc(C(F)(F)F)c(C[S+]([O-])c2ccc(Cl)c[n+]2[O-])c1OCC(F)F (centres unmarked) [Compound 85] | – | – | 50 | 100 | 98 | 50 | 100 | 100 | 50 | – | 100 | 100 | – | – | – | 100 | 0 | 25 | 100 | Plant response rating, Horseweed (Canada horseweed; Preemergence, 62 g ai/ha): 100; Plant response rating, Guineagrass (guineagrass; Preemergence, 62 g ai/ha): 98; Plant response rating, Sowthistle (common sowthistle; 16 g ai/ha, preemergence): 0 |
| CCc1cc[n+]([O-])c(S(=O)(=O)Cc2c(C(F)(F)F)nn(C)c2OCC(F)(F)F)c1 [Compound 60] | 100 | 100 | – | 100 | 35 | – | 80 | 80 | 20 | 100 | 100 | 95 | 100 | 100 | – | 100 | 80 | – | 100 | Horseweed plant response rating (Canada horseweed; 250 g ai/ha, preemergence): 100; Chickweed plant response rating (common chickweed; 250 g ai/ha, preemergence): 100; Guineagrass plant response rating (guineagrass; 250 g ai/ha, preemergence): 100; Spanishneedles plant response rating (spanishneedles; 250 g ai/ha, preemergence): 100; Sowthistle plant response rating (common sowthistle; 250 g ai/ha, preemergence): 100 |

— US20100298141A1, “SUBSTITUTED PYRIDINE N-OXIDE HERBICIDES” (E. I. DU PONT DE NEMOURS AND COMPANY, priority 2007, published 2010)
